Legend:
[1] = Cmax in human neonate serum after 25 hrs by fluorescence polarization immunoassay; assay type: ADME, organism-based
[2] = Cmin in human neonate serum after 25 hrs by fluorescence polarization immunoassay; assay type: ADME; settings: read-out: Cmin
[3] = Cmax in human neonate at 10 mg/kg, iv by HPLC; assay type: ADME, organism-based; set-up: dose 10 mg/kg, route intravenous; settings: in vivo
[4] = Drug uptake in human adult CSF at 75 mg, im up to 8.5 hrs by HPLC; assay type: ADME, organism-based, Cerebrospinal fluid; set-up: dose 75 mg, route intramuscular
[5] = Drug uptake in human neonate CSF after 25 hrs by HPLC; assay type: ADME, organism-based, Cerebrospinal fluid

Cmax [1]: 35.7 µg/mL
concentration at 25 h [2]: 3.8 µg/mL
Cmax [3]: < 0.2 µg/mL
Cmax [4]: < 0.5 µg/mL
Cmax [5]: 1.08 µg/mL
Structure (SMILES): NCC[C@H](O)C(=O)N[C@@H]1C[C@H](N)[C@@H](O[C@H]2O[C@H](CN)[C@@H](O)[C@H](O)[C@H]2O)[C@H](O)[C@H]1O[C@H]1O[C@H](CO)[C@@H](O)[C@H](N)[C@H]1O [AMIKACIN]

— ChEMBL document CHEMBL1275422, “Cerebrospinal fluid compartmental pharmacokinetics of amikacin in neonates” (Antimicrob Agents Chemother, 2008)
